Where two headings read alike, the source gives them in different places.

Assay [1] addresses T1, human aquaporin-4 M23 isoform (hAQP4b) (Homo sapiens, UniProt P55087).
T1 construct: Full-length cRNA was subcloned into pSP35T expression vector for Xenopus oocytes; expressed in transfected cells; host or cells: Xenopus laevis oocytes injected with hAQP4b cRNA (pSP35T vector)
The experiment in a line: Inhibition of AQP4 mediated hypoosmotic swelling of Xenopus laevis oocytes expressing hAQP4b. Type of assay: cell-based. The note with it: for inhibition at 20 µM / % Inh (percent inhibition and cumulated error): Table 3, [X]=20 μM, P<0.05; for inhibition at 20 µM: read-out: % Inh (percent inhibition and cumulated error). As for the experimental part: Compounds studied in vitro were purchased from Sigma-Aldrich, Tokyo Kasei, Wako or Scientific Exchange, and were used without further purification. […] Compound samples were freshly dissolved into DMSO (Sigma, Hibri-Max) and diluted into RO deionized water (Milipore, Ultra-Q) prior to use. Other reagents were purchased from Sigma and Wako and were used without modification. Modified Barth's Medium (MBS) and isolation buffer were prepared using autoclaved, doubly distilled water. MBS was used for up to one week after its preparation. […] Isolation buffer was prepared to contain NaCl (108 mM), KCl (2 mM), EDTA, (2 mM), HEPES (10 mM), and was at pH=7.5.
cDNA encoding human aquaporin-4 M23 isoform (hAQP4b) was cloned by reverse-transcription polymerase chain reaction (RT-PCR). First-strand cDNA was synthesized from human cerebellum total RNA by using the Advantage RT-for-PCR Kit (CLONTECH). The following oligonucleotide PCR primers were designed based on published hAQP4b sequences (Lu, et al. Proc. Nat. Acad. Sci. USA 1996, 93, 10908): forward 5′-[…]-3′, reverse 5′-[…]-3′. Full-length cRNA was subcloned into pSP35T expression vector for Xenopus oocytes (Amaya, et al. Cell 1991, 66, 257).
Oocytes from an adult, female Xenopus laevis were transferred portion-wise to a Petri dish containing isolation buffer, where the follicular membranes and vitelline were removed manually, thereby yielding denuded oocytes (Sakimura, et al. FEBS Lett. 1990, 272, 73). Denuded stage V-VI oocytes were then returned to fresh MBS medium and allowed to equ ilibrate for a minimum of 2 h at 18° C. prior to cRNA injection. Denuded oocytes unused after 24 h were discarded. An aliquot of hAQP4b cRNA solution (20 μL) was pelleted by centrifugation (15,000 rpm, 14 min, 4° C.), the pellet was washed sequentially with 70% aqueous ethanol, then 100% ethanol (centrifugation between washes at 15,000 rpm, 3 min, 4° C.), air dried, and finally reconstituted in distilled water (10 μL). An aliquot (30 nL) of either the resulting 0.1 μg/μL cRNA solution (3 ng hAQP4b cRNA/oocyte) or distilled water (sham) was injected into each oocyte using a Drummond oocyte injection system. The injected oocytes were then incubated for 48 h at 18° C. in MBS. The medium was changed and non-viable oocytes removed 24 and 48 h post injection.
An oocyte assay procedure was developed as follows: At a minimum of 3 h prior to the assay, oocytes were transferred to a 96 well microplate (Falcon 353077) along with 45 μL of MBS. An aliquot of a 200 μM inhibitor solution (5 μL, 1% aq. DMSO), or blank (5 μL, 1% aq. DMSO) was introduced to the oocyte containing well 2 h before the assay. The final concentration of the incubation medium was 20 μM in inhibitor with 0.1% DMSO. A secondary plate was likewise prepared by diluting an aliquot of the 200 μM inhibitor solution (15 μL, 1% aq. DMSO) or blank (15 μL, 1% aq. DMSO) with distilled water (135 μL). The assay was performed by transferring an aliquot of the secondary plate medium (100 μL) to the corresponding well on the incubation plate. […] The initial image (nominally t=3 s) and subsequent images (60 s intervals) were recorded for up to 4 minutes post dilution.
Images were transferred to a PC and the area of each oocyte was evaluated using NIH Image-J. The cross-sectional area values for each oocyte at time=t were converted to volumes assuming a spherical relationship. The relative volume of each oocyte compared to its initial volume was then determined. Relative oocyte volumes were then averaged for n oocytes along with the standard error at each point.

In assay [2] the target is T1, human aquaporin-4 M23 isoform (hAQP4b). The assay is described as above. The format is cell-based. On the set-up: IAmax: unit not given here. The note with it: for IAmax: value in parentheses after IC50, 0.01≦[X]≦100 μM.
A further assay concerns HEK293 cells. The note with it: literature report, isozyme not demonstrated; cited from earlier work.
In a further assay the target is T2, AQP1 (Homo sapiens, UniProt P29972).
T2 sequence (P29972 1-269): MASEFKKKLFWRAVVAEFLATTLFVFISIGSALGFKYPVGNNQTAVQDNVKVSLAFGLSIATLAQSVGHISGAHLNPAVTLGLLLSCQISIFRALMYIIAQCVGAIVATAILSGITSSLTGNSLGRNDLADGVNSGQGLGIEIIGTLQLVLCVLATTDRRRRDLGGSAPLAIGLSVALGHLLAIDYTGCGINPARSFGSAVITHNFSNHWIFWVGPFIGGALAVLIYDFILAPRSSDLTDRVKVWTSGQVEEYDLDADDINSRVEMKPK
The note with it: literature report; cited from earlier work.

In the next assay the target is AQP4 (Homo sapiens, UniProt P55087). The note with it: literature report; cited from earlier work.
Chain of AQP4 (P55087 whole entry): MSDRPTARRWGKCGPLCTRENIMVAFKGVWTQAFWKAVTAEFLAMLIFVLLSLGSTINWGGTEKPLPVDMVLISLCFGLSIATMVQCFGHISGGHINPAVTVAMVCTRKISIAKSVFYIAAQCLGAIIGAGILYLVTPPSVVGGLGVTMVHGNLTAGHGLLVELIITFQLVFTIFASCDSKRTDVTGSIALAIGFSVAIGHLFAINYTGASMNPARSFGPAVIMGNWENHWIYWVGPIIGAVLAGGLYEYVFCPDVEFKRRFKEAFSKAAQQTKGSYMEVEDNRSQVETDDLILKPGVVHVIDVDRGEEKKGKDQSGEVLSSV
Setting [3] is: Table 3, from inhibitory data at 0.01≦[X]≦100 μM, read-out: IC50.
Setting [4] is: figure legends FIGS. 8-12, non-linear least squares fit of dose dependent inhibition, read-out: IC50.

T1 sequence (P55087 23-323): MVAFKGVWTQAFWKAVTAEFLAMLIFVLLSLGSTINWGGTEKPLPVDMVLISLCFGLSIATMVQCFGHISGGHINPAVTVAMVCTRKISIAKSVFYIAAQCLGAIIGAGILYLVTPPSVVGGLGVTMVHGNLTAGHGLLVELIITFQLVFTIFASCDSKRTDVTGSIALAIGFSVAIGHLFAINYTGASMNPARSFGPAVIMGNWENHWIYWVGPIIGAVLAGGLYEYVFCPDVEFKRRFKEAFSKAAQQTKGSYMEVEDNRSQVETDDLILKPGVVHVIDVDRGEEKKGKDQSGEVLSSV

One may read the inhibition as how much of the control response was suppressed. What is called IC50 is the concentration that gives 50% inhibition. For the molecule `CC(=O)Nc1nnc(S(N)(=O)=O)s1` [Compound 1, N-(5-sulfamoyl-1,3,4-thiadiazol-2-yl)acetamide], the inhibition at 20 µM in assay [1] worked out at 78 ± 3%. Further, the “dose response dependent inhibition of AQP4 mediated water transport” value in assay [2] (FIG. 7, 0.01, 0.1, 1.0 and 10 μM solutions, n=5) is on record as “significant inhibition”. For the same molecule, in assay [2] (Table 3, from inhibitory data at 0.01≦[X]≦100 μM), half-maximal inhibition (IC50) required 0.86 µM. Also, the IAmax in assay [2] (Table 3) was 86.

With `CC(=O)Nc1ccc(S(N)(=O)=O)cc1` [Compound 3, N-(4-sulfamoylphenyl)acetamide], the inhibition at 20 µM in assay [1] turned out to be 23 ± 5%.

Turning to `O=C1NC(=O)C(c2ccccc2)(c2ccccc2)N1` [Compound 4, 5,5-diphenylimidazolidine-2,4-dione], the inhibition at 20 µM in assay [1] was 58 ± 4%. The 50% inhibitory concentration (IC50) in assay [2] (setting [3]) came out at 9.8 µM. For the same molecule, the IAmax in assay [2] (Table 3) is 60.

With `NC(=O)N1c2ccccc2CC(=O)c2ccccc21` [Compound 5, 10-oxo-10,11-dihydro-5H-dibenzo [b,f]azepine-5-carboxamide], the inhibition at 20 µM in assay [1] was determined as 33 ± 4%.

In the case of `NC(=O)N1c2ccccc2[C@H]2O[C@H]2c2ccccc21` [Compound 6, (1aR, 10bS)-1aH-dibenzo[b,f] oxireno[2,3-d]azepine-6(10bH)-carboxamide], the “inhibition of AQP4 mediated water swelling / water transport” value in assay [1] (FIGS. 1-6, 20 μM inhibitor, hypoosmotic conditions, versus sham and blank oocytes, n=5 minimum) is on record as “did not show a significantly inhibited water transport”. Besides, the inhibition at 20 µM in assay [1] came out at 40 ± 7%.

Regarding `Nc1nnc(-c2cccc(Cl)c2Cl)c(N)n1` [Compound 7, 6-(2,3-dichlorophenyl)-1,2,4-triazine-3,5-diamine], the inhibition at 20 µM in assay [1] was 54 ± 9%. Moreover, the IC50 in assay [2] (setting [3]) amounted to 8.1 µM. Besides, the IAmax in assay [2] (Table 3) is listed as 64.

Turning to `CC1(C)O[C@@H]2[C@@H](CO[C@@]3(COS(N)(=O)=O)OC(C)(C)O[C@@H]23)O1` [Compound 8, ((3aS,5aR,8aR,8bS)-2,2,7,7-tetra-methyltetrahydro-3aH-bis[1,3]dioxolo[4,5-b:4′,5′-d]pyran-3a-yl) methyl sulfamate], the “% Inh (percent inhibition and cumulated error)” value in assay [1] worked out at 67 ± 6%. Further, the IC50 in assay [2] (setting [3]) was found to be 10.1 µM. Besides, the IAmax in assay [2] (Table 3) is given as 75.

On to `NS(=O)(=O)Cc1noc2ccccc12` [Compound 9, benzo[d]isoxazol-3-ylmethane sulfonamide], for which, in assay [1], the inhibition at 20 µM amounted to 19 ± 5%.

With `O=C(Nc1nncs1)c1cccnc1` [Compound 10, N-(1,3,4-thiadiazol-2-yl) nicotinamide], the inhibition at 20 µM in assay [1] is 67 ± 6%. Besides, the IC50 in assay [2] (setting [3]) was found to be 3.1 µM. In addition, the IAmax in assay [2] (Table 3) was 73.

Turning to `O=C(Nc1nccs1)c1cccnc1` [Compound 11, N-(thiazol-2-yl)nicotinamide], in assay [1], the inhibition at 20 µM is 21 ± 7%. Further, the IC50 in assay [2] (setting [3]) was 3.4 µM. Also, the IAmax in assay [2] (Table 3) stood at 23.

On to `O=S(=O)(Cc1ccccc1)Nc1nncs1` [Compound 12, 1-phenyl-N-(1,3,4-thiadiazol-2-yl) methanesulfonamide], for which the “% Inh (percent inhibition and cumulated error)” value in assay [1] came out at 45 ± 8%.

As to `NS(=O)(=O)c1ccc(Cl)s1` [Compound 13, 2-chlorothiophene-5-sulfonamide], the inhibition at 20 µM in assay [1] was 18 ± 9%.

For the molecule `NC(=O)c1nc[nH]c1C(N)=O` [Compound 14, 1H-imidazole-4,5-dicarboxamide], the inhibition at 20 µM in assay [1] came out at 23 ± 8%.

Regarding `CN(C)CCc1c[nH]c2ccc(Cn3cncn3)cc12` [Compound 15, 2-(5-((1H-1,2,4-triazol-1-yl)methyl)-1H-indol-3-yl)-N,N-dimethylethanamine], in assay [1], the inhibition at 20 µM was found to be 51 ± 5%. In addition, in assay [2] (setting [3]), the concentration for half-maximal inhibition (IC50) is 2.9 µM. For the same molecule, the IAmax in assay [2] (Table 3) is reported as 54.

With `COC(=O)Nc1nc2ccc(C(=O)c3cccs3)cc2[nH]1` [Nocodazole], the “inhibition of AQP4 mediated hypoosmotic expansion” value with HEK293 cells is listed as “inhibiting the AQP4 mediated hypoosmotic expansion of HEK293 cells”.

With `CC(=O)Nc1nnc(S(N)(=O)=O)s1` [Table 3 entry 1, N-(5-sulfamoyl-1,3,4-thiadiazol-2-yl)acetamide], the IC50 in assay [1] came out at 0.86 µM.

As for `O=C1NC(=O)C(c2ccccc2)(c2ccccc2)N1` [Table 3 entry 4, 5,5-diphenylimidazolidine-2,4-dione], the IC50 in assay [2] (setting [4]) turned out to be 9.8 µM.

With `CC1(C)O[C@@H]2[C@@H](CO[C@@]3(COS(N)(=O)=O)OC(C)(C)O[C@@H]23)O1` [Table 3 entry 8, ((3aS,5aR,8aR,8bS)-2,2,7,7-tetra-methyltetrahydro-3aH-bis[1,3]dioxolo[4,5-b:4′,5′-d]pyran-3a-yl) methyl sulfamate], in assay [2] (setting [4]), the IC50 came to 10.1 µM.

Consider `O=C(Nc1nncs1)c1cccnc1` [Table 3 entry 10, N-(1,3,4-thiadiazol-2-yl) nicotinamide], for which, in assay [2] (setting [4]), the IC50 is 3.1 µM.

`CN(C)CCc1c[nH]c2ccc(Cn3cncn3)cc12` [Table 3 entry 15, 2-(5-((1H-1,2,4-triazol-1-yl)methyl)-1H-indol-3-yl)-N,N-dimethylethanamine]: the IC50 in assay [2] (setting [4]) amounted to 2.9 µM.

As to `CC(=O)Nc1nnc(S(N)(=O)=O)s1` [acetazolamide], the “inhibition of AQP1” value at AQP1 is on record as “inhibited in a dose dependent manner”.

On to `CC[N+](CC)(CC)CC.[Cl-]` [tetraethyl ammonium chloride], for which, at AQP4, the “inhibition of AQP4” value was “shown to inhibit AQP4”.

Source of the values: patent US7659312B2, “Inhibitors of Aquaporin 4, methods and uses thereof” (Niigata University, priority 2006, dated 2010).
